From PubChem BioAssay AID1418 (Emory University Molecular Libraries Screening Center, 2008)
pIC50: −log10 of the molar value. The source made the active and inactive calls. No rule for the calls is given here.

Molecular target: Induced myeloid leukemia cell differentiation protein Mcl-1 (Homo sapiens) (UniProt Q07820)
Assay: blockers of Bid binding to Mcl-1 – biochemical, TR-FRET, dose response (AID 1418)
Details: Mcl-1/Bid peptide binding, TR-FRET (europium/Dy647), 2 hr

Chain of Induced myeloid leukemia cell differentiation protein Mcl-1 (Homo sapiens) (Q07820 whole entry, looked up): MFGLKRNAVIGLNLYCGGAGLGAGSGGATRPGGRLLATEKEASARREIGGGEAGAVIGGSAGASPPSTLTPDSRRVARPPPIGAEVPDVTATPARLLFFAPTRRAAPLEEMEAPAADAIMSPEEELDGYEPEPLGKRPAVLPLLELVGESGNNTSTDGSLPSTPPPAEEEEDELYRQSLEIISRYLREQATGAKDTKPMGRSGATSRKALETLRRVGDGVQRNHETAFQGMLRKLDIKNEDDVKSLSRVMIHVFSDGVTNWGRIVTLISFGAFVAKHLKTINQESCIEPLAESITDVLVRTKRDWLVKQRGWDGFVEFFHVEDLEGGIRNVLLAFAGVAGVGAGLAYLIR

SMILES | IC50 | pIC50
CCOC(=O)C1CCN(C(=O)c2cc(S(=O)(=O)N3CCOCC3)c(Cl)cc2Cl)CC1 | > 54 µM (inactive) | 
O=C(Nc1cccc(-c2csc(-c3ccccc3)n2)c1)c1cccs1 | > 54 µM (inactive) | 
COc1cccc(NC(=O)CSc2nc3ccccc3n2C)c1 | > 54 µM (inactive) | 
CCCCCCn1c(O)c(C=NCCN2CCOCC2)c(=O)[nH]c1=O | > 54 µM (inactive) | 
O=C(ONc1ccc(N=NC(=O)c2ccccc2O)cc1)c1ccccc1 | inactive | 
CN(CCN(C)C(C)(C)C)C(=O)C(c1ccccc1)c1ccccc1 | > 54 µM (inactive) | 
O=C(NCCc1ccccc1)C1CCN(S(=O)(=O)c2ccc(-c3nn[nH]n3)cc2)CC1 | > 54 µM (inactive) | 
CN1C(=S)N(c2cccnc2)C(=O)/C1=C\c1ccc(N(C)C)cc1 |  | 5.05
O=c1c2ccccc2nc(/C=C/c2cccnc2)n1Cc1ccccc1 |  | 6.27
O=c1c2cc(Cl)ccc2nc(-c2ccccc2Cl)n1O | > 54 µM (inactive) | 
Cc1ccc(C2C3=C(Nc4[nH]n(-c5ccccc5)c(=O)c42)c2ccccc2C3=O)cc1 (centres undefined) |  | 6.13
CC1(C(=O)NNC(=O)C2CCCCC2)CC1(Cl)Cl (centres undefined) | > 54 µM (inactive) | 
CN(C)C(=O)/C(C#N)=C\c1cc(Br)c(Sc2ccc(Cl)cc2)o1 | > 54 µM (inactive) | 
O=C(N/N=C/C(Br)=C\c1ccccc1)c1ccco1 | > 54 µM (inactive) | 
CCn1c(C)cc(/C=C2/NC(=O)N(CC(=O)Nc3cccc(C)c3)C2=O)c1C |  | 5.50
O=C(CSc1ccccn1)Nc1ccc2c(c1)C(=O)c1ccccc1C2=O |  | 5.76
CC1=NOC(=O)/C1=C/c1ccc(-c2ccc(Cl)cc2)o1 |  | 5.05
CCN(CC)CCNC(=O)/C(=C/c1cn(C)c2ccccc12)NC(=O)c1ccc(OC)c(OC)c1 | > 54 µM (inactive) | 
O=C1OC(c2cccs2)=N/C1=C/c1ccc(-c2cccc(C(=O)O)c2)o1 |  | 5.57
COc1ccc(-c2nc3ccccc3c(=O)n2CCOc2cccc(C)c2C)cc1 | > 54 µM (inactive) | 
CCCCN(C)C(=O)c1coc(=O)c2ccccc12 | > 54 µM (inactive) | 
O=C(Oc1cccc(N2C(=O)C3C4c5ccccc5C(c5ccccc54)C3C2=O)c1)c1ccco1 (centres undefined) | > 54 µM (inactive) | 
CCN(CC)c1ccc(CNc2nc3ccccc3n2C)cc1 | > 54 µM (inactive) | 
Cc1ccccc1C(=O)NC(=S)Nc1sc2c(c1C#N)CCCC2 | > 54 µM (inactive) | 
Cc1ccc2cc(/C=N/NC(=O)CN3CCOCC3)c(Cl)nc2c1 | > 54 µM (inactive) | 

SMILES | IC50 | pIC50
N=C1/C(=C\c2ccc(-c3cccc(C(=O)O)c3)o2)C(=O)N=C2SC=C(c3ccccc3)N12 |  | 5.33
CC(=O)c1c(N=CN(C)C)nc(C)nc1-c1ccccc1 | > 54 µM (inactive) | 
O=C(NC(Cc1ccccc1)C(=O)O)c1ccc(S(=O)(=O)N2CCCCC2)cc1 (centres undefined) | > 54 µM (inactive) | 
CC(C)[n+]1ccn(C2=C([O-])c3ccccc3C(=O)/C2=N\S(=O)(=O)c2ccccc2)c1 | > 54 µM (inactive) | 
Cc1ccc(-n2c(SCC(=O)NCc3ccco3)nc3sc4c(c3c2=O)CC(C)(C)SC4)cc1 | > 54 µM (inactive) | 
COc1ccc(CN2C(=O)/C(=C/c3ccc(-c4ccc(Cl)c(C(=O)O)c4)o3)SC2=S)cc1 |  | 5.78
CC1CC(C)CN(CCOCCSc2ccccc2)C1 (centres undefined) | > 54 µM (inactive) | 
O=C(Nc1nccs1)C1CC(=O)N(Cc2ccco2)C1 (centres undefined) | > 54 µM (inactive) | 
CCN(CC)c1ccc2cc(-c3nc4ccccc4[nH]3)c(=O)oc2c1 |  | 5.79
COc1cc(-c2nc(-c3ccc(NC(=O)c4ccc(Br)o4)cc3)no2)cc(OC)c1OC |  | 5.74
CN1C(=O)CN=C(c2ccc(Cl)cc2)c2cc(Cl)ccc21 | > 54 µM (inactive) | 
O=C(CCN1CCc2ccccc2C1)Nc1cccc(F)c1 | > 54 µM (inactive) | 
CCN1C(=O)/C(=C\c2ccc(-c3ccc([N+](=O)[O-])cc3OC)o2)SC1=Nc1cccc(C(=O)O)c1 | > 54 µM (inactive) | 
Cc1ccc(S(=O)(=O)N2CCOCC2)cc1C(=O)N1C(=O)c2cccc(N)c2C1=O | > 54 µM (inactive) | 
Cc1ccc(N2C(=O)CC(Cn3nc(C)cc3C)C2=O)cc1 (centres undefined) | > 54 µM (inactive) | 
NC(=O)N1CCN(C(=O)c2ccco2)CC1 | > 54 µM (inactive) | 
COC(=O)c1cccc(NC(=S)Nc2cccc(Cl)c2Cl)c1 | > 54 µM (inactive) | 
Cc1cc(=O)oc2cc(OCc3ccc(C(=O)OCC(=O)Nc4ccc(N(C)C)cc4)cc3)ccc12 |  | 6.15
COc1cc(/C=C2/SC(N)=NC2=O)ccc1Oc1ccc([N+](=O)[O-])cc1[N+](=O)[O-] |  | 5.46
CCS(=O)(=O)N1CCN(C(C)CCc2ccccc2)CC1 (centres undefined) | > 54 µM (inactive) | 
C=CCn1c(SCc2ccc(C#N)cc2)nnc1-c1cccc(OC)c1 | > 54 µM (inactive) | 
O=C(Cn1c2ccccc2c(=O)c2ccccc21)N/N=C/c1cc([N+](=O)[O-])ccc1N1CCCCC1 |  | 6.19
Cc1ccc(S(=O)(=O)CCNC(=O)Cc2ccccc2)cc1 | > 54 µM (inactive) | 
CCOC(=O)c1c(C)oc2cc(Br)c(OC(=O)N3CCOCC3)cc12 | > 54 µM (inactive) | 
C=CCC1(/C=N/O)CCOC(C)(C)C1 (centres undefined) | > 54 µM (inactive) | 

SMILES | IC50 | pIC50
Cc1ccc(CNC(=O)CCS(=O)(=O)c2cccc3nonc23)cc1 | > 54 µM (inactive) | 
Cn1c(SCc2nc3ccccc3s2)nnc1-c1ccc2c(c1)OCO2 | > 54 µM (inactive) | 
O=C1CSC(c2cccnc2)N1c1ccc(Cl)cc1 (centres undefined) | > 54 µM (inactive) | 
CCN1C(=O)c2cccc3c(S(=O)(=O)Nc4ccccc4OC)ccc1c23 | > 54 µM (inactive) | 
CS(=O)(=O)NCc1ccc(C(=O)NCCOc2ccccc2)cc1 | > 54 µM (inactive) | 
Cc1ccc(C(=O)CN(C(=O)c2ccc(Cl)c(Cl)c2)N2C(=O)C3C4C=CC(C4)C3C2=O)cc1 (centres undefined) | > 54 µM (inactive) | 
O=S(=O)(c1ccc(NC(=S)NCc2cccnc2)cc1)N1CCCCC1 | > 54 µM (inactive) | 
O=C(/C=C/c1cccs1)Nc1scc(-c2ccccc2)c1C(=O)O |  | 6.27
O=C(Cn1nc(C(F)(F)F)c2c1CCCC2)NCc1ccco1 | > 54 µM (inactive) | 
Oc1c(C(c2ccc(Cl)cc2)N2CCCC2)cc(Cl)c2cccnc12 (centres undefined) |  | 5.94
CN(c1cccc(NC(=O)c2ccccc2N(C)S(C)(=O)=O)c1)S(C)(=O)=O | > 54 µM (inactive) | 
CCOC(=O)c1sc(N2N=C(C)C(N=Nc3cccc(C)c3)C2=O)nc1C (centres undefined) |  | 5.85
N=C1/C(=C\c2ccc(-c3ccc(C(=O)O)cc3)o2)C(=O)N=C2SC=C(c3ccccc3)N12 |  | 5.56
O=C(Cn1nc(C(=O)O)c2ccccc2c1=O)Nc1ccc2c(c1)C(=O)c1ccccc1C2=O |  | 5.53
O=C(Cc1ccc(F)cc1)Nc1nnc(SCC(=O)NC2CCCC2)s1 | > 54 µM (inactive) | 
CCCCN(Cc1cc2cc(OC)ccc2[nH]c1=O)C(=O)c1ccccn1 | > 54 µM (inactive) | 
COC(=O)c1c(NC(=O)c2cnccn2)sc2c1CCC2 | > 54 µM (inactive) | 
COc1cccc(CNC(=O)C2CCN(S(=O)(=O)N3CCCCC3)CC2)c1 | > 54 µM (inactive) | 
COCCN1Cc2cccc(C(=O)Nc3cccc(C)c3C)c2C1=O | > 54 µM (inactive) | 
CCOC(=O)CSc1nc(C2CC2)cc(-c2ccc(Cl)cc2)c1C#N | > 54 µM (inactive) | 
CC(=O)Cc1cc(O)c2ccccc2c1OC(=O)c1ccc(Br)cc1 | > 54 µM (inactive) | 
CCOC(=O)c1cc(-c2ccc(/C=C3/C(=O)NC(=O)C(C#N)=C3C)o2)ccc1Cl |  | 6.10
Cc1cc(/C=N/NC(=O)c2cccs2)c(C)n1-c1ccccc1 | > 54 µM (inactive) | 
COc1cc(NC(=O)COc2ccccc2)c(OC)cc1NC(C)=O | > 54 µM (inactive) | 
CCOC(=O)c1c(NC(=O)CN(C)C)sc(C(=O)N(CC)CC)c1C | > 54 µM (inactive) | 

SMILES | IC50 | pIC50
Cc1ccc(-c2nc(N3CCOCC3)sc2C(=O)N2CCCCC2)cc1 | > 54 µM (inactive) | 
Cn1c2ccccc2c(=O)c2c(=O)n(C3CCCCCC3)c(C3CCCCC3)nc21 |  | 5.64
COc1ccc(C2(C)NC(=O)N(CC(=O)NCCC3=CCCCC3)C2=O)cc1OC (centres undefined) | > 54 µM (inactive) | 
Cc1cccc2cc(/C=N/NC(=O)CN3CCOCC3)c(Cl)nc12 | > 54 µM (inactive) | 
O=C1N=c2ccccc2=C1c1c(O)n(-c2cccc(F)c2)[nH]c1=O |  | 5.81
Clc1cccc(Cl)c1CON/C=N/c1ncnc2sccc12 | > 54 µM (inactive) | 
Cc1cccc(CN2CCc3c(OCC(=O)NCc4ccco4)cccc3C2=O)c1 | > 54 µM (inactive) | 
Oc1[nH]c2ccccc2c1/C=N/N1CCCCC1 | > 54 µM (inactive) | 
CC12CCC(C(=O)Nc3ccccc3-n3cccc3)(CC1=O)C2(C)C (centres undefined) | > 54 µM (inactive) | 
C#CCOCCOCCOCCNc1nc(N2CCN(C(=O)[C@H](CCCCN)n3cc([C@@H](N)C(C)CC)nn3)CC2)nc(N2CCN(C(=O)[C@H](CCCCN)n3cc([C@@H](N)CO)nn3)CC2)n1 (some centres undefined) |  | 6.20
O=C(N/N=C/c1ccco1)c1ccc(N2CCCC2=O)cc1 | > 54 µM (inactive) | 
Cc1cc(C)c(S(=O)(=O)/N=C2/C=C(Sc3ncn[nH]3)C(=O)c3ccccc32)cc1C |  | 5.92
Cc1cc(N/N=C/c2ccc(O)c(C)c2O)nc(-c2ccccc2O)n1 |  | 5.04
Clc1ccccc1CN1CCc2sccc2C1 | > 54 µM (inactive) | 
COc1ccc(C(=O)Nc2ccc3c(c2)C(=O)c2ccccc2C3=O)cc1OC |  | 6.22
CN1CCN(Cc2cccc(Oc3ccc(Cl)cc3)c2)CC1 | > 54 µM (inactive) | 
COCC(=O)Nc1ncc(S(=O)(=O)c2ccc([N+](=O)[O-])cc2)s1 | > 54 µM (inactive) | 
Fc1cc(F)c2nc(Nc3nc4cc5c(cc4s3)OCO5)sc2c1 |  | 6.23
COc1ccc(C)cc1S(=O)(=O)N(C)CC(=O)NCc1ccco1 | > 54 µM (inactive) | 
O=c1[nH]c(=O)n(CCc2ccccc2)c(O)c1C=NCc1ccc2c(c1)OCO2 | inactive | 
Cc1ccc(-n2cccc2/C=C2\C(=N)N3N=C(c4ccco4)SC3=NC2=O)cc1 |  | 5.46
Cn1nc(-c2ccc(Cl)cc2)c2cc(C(=O)NCCN3CCOCC3)sc21 | > 54 µM (inactive) | 
Cc1nc(N)sc1-c1csc(Nc2ncccn2)n1 |  | 5.48
C#CCn1cc(/C=N/NC(=O)COc2cccc3cccnc23)c2ccccc21 |  | 6.07
